Values quoted from earlier work in publication PMC3176332 (European journal of medicinal chemistry, 2009).

System: ERβ
Conditions: relative to estradiol

In the case of `O=c1c(-c2ccc(O)cc2)coc2cc(O)cc(O)c12` [compound 2, genistein], the ERβ binding selectivity is given as 20 fold.
